Data published in US10563263B2, “Genetic polymorphisms associated with statin response and cardiovascular diseases, methods of detection and uses thereof” (CELERA CORPORATION, priority 2010, dated 2020).

System: recurrent MI
Test: CARE: CHD statin response (recurrent MI) by SNP genotype, hazard ratio pravastatin vs placebo (Table 22)
Assay type: in vivo, human
Conditions: rs873134 (hCV2652047), ref = placebo
Source text: (§1) In the analysis for which the results are provided in Table 22, the endpoint was recurrent MI, and the analysis was adjusted for age, gender, hypertension, diabetes, base LDL and HDL, and whether an individual was a current smoker.
In Tables 20-22, certain columns are labeled “RESP”, “PLACEBO, OR “ALL”. “RESP” is for statin response as measured by comparing risk (risk for stroke, including TIA, in Tables 20-21, and risk for CHD, specifically recurrent MI, in Table 22) in the pravastatin-treated group with risk in the placebo-treated group, “PLACEBO” is the placebo-treated group, and “ALL” is the combination of the placebo-treated group and the pravastatin-treated group. “RESP” is the analysis to assess statin response in the indicated genotype group.
“EVENTS” indicates the total number of events (stroke or TIA for Tables 20-21, and recurrent MI for Table 22) in individuals with the indicated genotype.
“HR” indicates the hazard ratio.
CARE was a secondary prevention trial and WOSCOPS was a primary prevention trial.
as §1, with “Thus, SNP rs873134 is an example of a SNP that is associated with statin response for reducing risk for both stroke and CHD. In” for “In”

## CC[C@H](C)C(=O)O[C@H]1C[C@H](O)C=C2C=C[C@H](C)[C@H](CC[C@@H](O)C[C@@H](O)CC(=O)O)[C@H]21 [Pravastatin, pravastatin]
MODE DOM, genotype TC + TT
  HR_RESP (hazard ratio pravastatin vs placebo, CHD): 0.85
MODE GEN, genotype CC
  HR_RESP (hazard ratio pravastatin vs placebo, CHD): 0.48
MODE GEN, genotype TC
  HR_RESP (hazard ratio pravastatin vs placebo, CHD): 1
MODE GEN, genotype TT
  HR_RESP (hazard ratio pravastatin vs placebo, CHD): 0.57
